Patent US10266523B2, “Crystaline forms of N-[6-(cis-2,6-dimethylmorpholine-4-yl)pyridine-3-yl]-2-Methyl-4′-(trifluoromethoxy) [1,1′-biphenyl]-3-Methanamide monophosphate, and process of preparation thereof” (CRYSTAL PHARMATECH CO., LTD., priority 2015, dated 2019)
Entries after “also recorded” stand apart in the source; their conditions may differ. Read-outs that look alike come from different tables or passages of the source.

Assays:
[1] = Solid-state storage stability, form change detected by XRPD; assay type: physicochemical; settings: 120 days
Text: The samples after storage were detected by XRPD.

[2] = cited from earlier work
[3] = Stability of crystalline forms in water and simulated biological media (saturated solution, XRPD of solid); assay type: physicochemical; settings: for Final form: SGF, listed as Crystalline Form A of monophosphate
Experimental: After being equilibrated for 1 hour, 4 hours and 24 hours, a small amount solid of each saturated solution was carried out for XRPD test, the testing result is shown in table 9, and the XRPD contrast diagram after 1 hour is shown in FIG. 9, wherein a is starting form of diphosphonate, b is monophosphate Form B of the present disclosure, c is the crystalline form of the diphosphonate after 1 hour in water, d is the crystalline form of the diphosphonate after 1 hour in SGF, e is the crystalline form of the diphosphonate after 1 hour in the FaSSIF, and f is the crystalline form of the diphosphonate after 1 hour in FeSSIF.

[4] = Particle size distribution test (Microtrac S3500 laser particle size analyzer, wet process); assay type: physicochemical; settings: for MV (average particle size calculated by volume): dispersion medium Isopar G; for D10 / D50 / D90: volume distribution, Isopar G
Experimental: The particle size distribution test in the present disclosure is acquired by the S3500 laser particle size analyzer of Microtrac. Microtrac S3500 is equipped with the Sample Delivery Controller. The test is carried out by wet process, and the dispersion medium is Isopar G The parameters are as follow: [table] 10-30 mg sample was dispersed with 10 mL Isopar G (containing 0.2% of lecithin). The sample is added into the SDC sample injection system when fully mixed. Start the experiment when the sample amount indication chart reaches a proper position. The result of particle size distribution test is shown in table 13, the particle size distribution diagram of the Form A is shown in FIG. 10, and the particle size distribution diagram of the Form B of monophosphate is shown in FIG. 11.

[5] = Hygroscopicity assessment by dynamic vapor sorption (DVS); assay type: physicochemical; settings: 25° C.; for Weight Gain at 80% Relative Humidity: DVS, 10 mg
Experimental: Dynamic Vapor Sorption (DVS) is measured via a SMS (Surface Measurement Systems) DVS Intrinsic, using 10 mg of crystalline form. Typical Parameters for DVS test are listed below: Temperature: 25° C. Gas and flow rate: N2, 200 mL/min dm/dt: 0.002%/min RH range: 0% RH to 95% RH Stable duration: 10 min Maximum equilibrate time: 180 min Humidity gradient: 10%(0% RH-90% RH), 5%(90% RH-95% RH), Hygroscopicity of 10 mg of monophosphate Form A of compound of formula (I) was tested using dynamic vapor sorption (DVS). About hygroscopicity characterization description and definition of hygroscopicity (Chinese Pharmacopoeia 2010 edition appendix XIXJ Drug hygroscopic test guidelines, test at 25° C.+/−1° C., 80% Relative Humidity) • deliquescent: sufficient water is absorbed to form a liquid. • very hygroscopic: increase in mass is equal to or greater than 15%. • hygroscopic: increase in mass is less than 15% and equal to or greater than 2%. • slightly hygroscopic: increase in mass is less than 2% and equal to or greater than 0.2%. • no or almost no hygroscopic: increase in mass is less than 0.2%.

[6] = listed as Crystalline Form A of monophosphate
[7] = listed as Crystalline Form B of monophosphate

Structure (SMILES): Cc1c(C(=O)Nc2ccc(N3C[C@@H](C)O[C@@H](C)C3)nc2)cccc1-c1ccc(OC(F)(F)F)cc1.O=P(O)(O)O.O=P(O)(O)O [Diphosphonate in CN102159570, reference compound]
- Form Change ([1]; 5° C.): Diphosphonate
- Form Change ([1]; 25° C./60% RH): Diphosphonate
- Form Change ([1]; 40° C./75% RH, listed as diphosphonate in CN102159570): partly changed into Form B
- XRPD of the crystalline form after storage ([2]; 50° C./75% RH, 2 weeks): slightly changed
- XRPD of the crystalline form after storage ([2]; 80° C./75% RH, two weeks): changed
- form conversion in media ([3]; four media, equilibrated for 1 hour): convert into Form B of monophosphate

Structure (SMILES): Cc1c(C(=O)Nc2ccc(N3CC(C)OC(C)C3)nc2)cccc1-c1ccc(OC(F)(F)F)cc1 (stereo not drawn) [Form A, N-[6-(cis-2,6-dimethylmorpholine-4-yl)pyridine-3-yl]-2-methyl-4′-(trifluoromethoxy) [1,1′-biphenyl]-3-carboxamide monophosphate]
- Form Change ([1]; 5° C.): Form A
- Form Change ([1]; 25° C./60% RH): Form A
- Form Change ([1]; 40° C./75% RH): Form A and Form B
- particle size homogeneity and dispersion [4]: homogeneous particle size and good dispersion
- MV (average particle size calculated by volume) [4, 6]: 136.5 um
- D10 [4, 6]: 22.7 um
- D50 [4, 6]: 100.2 um
- D90 [4, 6]: 305.2 um
- hygroscopicity class (Chinese Pharmacopoeia 2010 definition) ([5]; 80% Relative Humidity): slightly hygroscopic (increase in mass is less than 2% and equal to or greater than 0.2%)
- Weight Gain at 80% Relative Humidity [5]: 0.59%
- Weight Gain at 80% Relative Humidity ([5]; listed as monophosphate Form A): 0.59%
- Final form ([3]; equilibrium time 1 h): Changed
- Final form ([3]; equilibrium time 4 h): Changed
- Final form ([3]; equilibrium time 24 h): Changed
- stability of crystalline form in media ([3]; water, FaSSIF and FeSSIF, after 1, 4, and 24 hours): stable

Structure (SMILES): Cc1c(C(=O)Nc2ccc(N3CC(C)OC(C)C3)nc2)cccc1-c1ccc(OC(F)(F)F)cc1 (stereo not drawn) [Form B, N-[6-(cis-2,6-dimethylmorpholine-4-yl)pyridine-3-yl]-2-methyl-4′-(trifluoromethoxy) [1,1′-biphenyl]-3-carboxamide monophosphate]
- Form Change ([1]; 5° C.): Form B
- Form Change ([1]; 25° C./60% RH): Form B
- Form Change ([1]; 40° C./75% RH): remains unchanged; also recorded: Form B
- particle size homogeneity and dispersion [4]: homogeneous particle size and good dispersion
- MV (average particle size calculated by volume) [4, 7]: 55.4 um
- D10 [4, 7]: 8.8 um
- D50 [4, 7]: 37.5 um
- D90 [4, 7]: 124.2 um
- stability of crystalline form in media ([3]; all of the four kinds of media (water, SGF, FaSSIF, FeSSIF)): do not change
